Key:
human motilin receptor = biological target: T1, human motilin receptor (Homo sapiens, UniProt O43193); assay: Competitive radioligand binding assay (motilin receptor), Method B1; details: [125I]-motilin competition, CHO cell membranes
T1 construct: purchased PerkinElmer (SignalScreen) 6110544; host or cells: CHO cells, stably transfected (membranes)
Description: (§1) The compounds of the present invention were evaluated for their ability to interact at the human motilin receptor and the human ghrelin receptor utilizing competitive radioligand binding assays as described in Method B1 and B2, respectively. Further characterization of the interaction can be performed utilizing the functional assays described in Methods B3 and B4 for the motilin and ghrelin receptors, respectively. All of these methods can be conducted, if so desired, in a high throughput manner to permit the simultaneous evaluation of many compounds.
Competitive Radioligand Binding Assay (Motilin Receptor)
• Membranes were prepared from CHO cells stably transfected with the human motilin receptor and utilized at a quantity of 1.5 μg/assay point. [PerkinElmer® SignalScreen® Product #6110544, Perkin Elmer, Inc., Wellesley, Mass.] • [^125I]-Motilin (PerkinElmer®, #NEX-378); final concentration: 0.04-0.06 nM • Motilin (Bachem®, #H-4385, Bachem AG Corporation, Bubendorf, Switzerland); final concentration: 1 μM • Multiscreen® Harvest plates-GF/B (Millipore®, #MAHFB1H60, Millipore Corporation, Billerica, Mass.) • Deep-well polypropylene titer plate (Beckman Coulter®, #267006, Beckman Coulter, Inc., Fullerton, Calif.) • TopSeal-A (PerkinElmer®, #6005185) • Bottom seal (Millipore®, #MATAH0P00) • MicroScint™-0 (PerkinElmer®, #6013611) • Binding Buffer: 50 mM Tris-HCl (pH 7.4), 10 mM MgCl2, 1 mM EDTA, 0.1% BSA
Assay Volumes: • 150 μl of membranes diluted in binding buffer • 10 μl of compound diluted in binding buffer • 10 μl of radioligand ([^125I]-Motilin) diluted in binding buffer
(§2) Compounds were provided frozen on dry ice at a stock concentration of 10 mM diluted in 100% DMSO and stored at −20° C. until the day of testing. On the test day, compounds were allowed to thaw at room temperature and than diluted in assay buffer according to the desired test concentrations. Under these conditions, the maximum final DMSO concentration in the assay was 0.5%.
In deep-well plates, diluted cell membranes (1.5 μg/mL) are combined with 10 μl of either binding buffer (total binding, N=5), 1 μM motilin (non-specific binding, N=3) or the appropriate concentration of test compound. The reaction is initiated by addition of 10 μl of [^125I]-motilin (final conc. 0.04-0.06 nM) to each well. Plates are sealed with TopSeal-A, vortexed gently and incubated at room temperature for 2 hours. The reaction is arrested by filtering samples through pre-soaked (0.3% polyethyleneimine, 2 h) Multiscreen® Harvest plates using a Tomtec ® Harvester (TomTec, Inc., Hamden Conn.), washed 9 times with 500 μl of cold 50 mM Tris-HCl (pH 7.4), and than plates are air-dried in a fumehood for 30 minutes. A bottom seal is applied to the plates prior to the addition of 25 μl of MicroScint™-0 to each well. Plates are than sealed with TopSeal-A and counted for 30 sec per well on a TopCount® Microplate Scintillation and Luminescence Counter (PerkinElmer®) where results are expressed as counts per minute (cpm).
Data are analyzed by GraphPad Prism® (GraphPad Software, Inc., San Diego, Calif.) using a variable slope non-linear regression analysis.
[formula] where total and non-specific binding represent the cpm obtained in the absence or presence of 1 μM motilin, respectively.

[1] = biological target: T2, human ghrelin receptor (hGHS-R1a) (Homo sapiens, UniProt Q92847); assay: Competitive radioligand binding assay (ghrelin receptor), Method B2; details: [125I]-ghrelin competition, HEK-293 cell membranes
T2 construct: purchased PerkinElmer BioSignal RBHGHSM, lot#1887; host or cells: HEK-293 cells, stably transfected (membranes GHS-R/HEK 293)
T2 sequence (Q92847 whole entry): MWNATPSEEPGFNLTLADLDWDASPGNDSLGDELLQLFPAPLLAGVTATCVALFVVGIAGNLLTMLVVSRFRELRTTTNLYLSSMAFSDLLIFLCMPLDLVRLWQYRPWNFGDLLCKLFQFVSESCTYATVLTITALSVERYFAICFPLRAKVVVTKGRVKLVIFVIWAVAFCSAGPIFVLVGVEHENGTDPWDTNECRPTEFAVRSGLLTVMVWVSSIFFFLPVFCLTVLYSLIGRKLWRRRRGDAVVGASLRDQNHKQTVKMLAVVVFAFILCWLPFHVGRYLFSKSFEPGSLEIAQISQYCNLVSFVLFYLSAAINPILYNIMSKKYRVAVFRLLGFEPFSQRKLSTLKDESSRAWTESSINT
Description: as §1
Competitive Radioligand Binding Assay (Ghrelin Receptor)
The competitive binding assay at the human growth hormone secretagogue receptor (hGHS-R1a) was carried out analogously to assays described in the literature. (Bednarek M A et al. (2000), Structure-function studies on the new growth hormone-releasing peptide ghrelin: minimal sequence of ghrelin necessary for activation of growth hormone secretagogue receptor 1a; J Med Chem 43:4370-4376. Palucki B L et al. (2001), Spiro(indoline-3,4′-piperidine) growth hormone secretagogues as ghrelin mimetics; Bioorg Med Chem Lett 11:1955-1957.)
• Membranes (GHS-R/HEK 293) were prepared from HEK-293 cells stably transfected with the human ghrelin receptor (hGHS-R1a).
as §2, with “−80°” for “−20°”, “rt overnight” for “room temperature”, “then” for “than”, “maximal” for “maximum”, “0.1%.” for “0.5%.”
In deep-well plates, 220 μl of diluted cell membranes (final concentration: 0.71 μg/well) were combined with 40 μl of either binding buffer (total binding, N=5), 1 μM ghrelin (non-specific binding, N=3) or the appropriate concentration of test compound (N=2 for each test concentration). […] Plates were sealed with TopSeal-A, vortexed gently and incubated at rt for 30 min. The reaction was arrested by filtering samples through Multiscreen® Harvest plates (pre-soaked in 0.5% polyethyleneimine) using a Tomtec® Harvester, washed 9 times with 500 μL of cold 50 mM Tris-HCl (pH 7.4, 4° C.), and then plates were air-dried in a fumehood for 30 min. A bottom seal was applied to the plates prior to the addition of 25 μl of MicroScint™-0 to each well. Plates were than sealed with TopSeal-A and counted for 30 sec per well on a TopCount® Microplate Scintillation and Luminescence Counter (PerkinElmer®) using a count delay of 60 sec. Results were expressed as counts per minute (cpm).
Data were analyzed by GraphPad Prism® (GraphPad Software, Inc., San Diego, Calif.) using a variable slope non-linear regression analysis.

T1 sequence (O43193 whole entry): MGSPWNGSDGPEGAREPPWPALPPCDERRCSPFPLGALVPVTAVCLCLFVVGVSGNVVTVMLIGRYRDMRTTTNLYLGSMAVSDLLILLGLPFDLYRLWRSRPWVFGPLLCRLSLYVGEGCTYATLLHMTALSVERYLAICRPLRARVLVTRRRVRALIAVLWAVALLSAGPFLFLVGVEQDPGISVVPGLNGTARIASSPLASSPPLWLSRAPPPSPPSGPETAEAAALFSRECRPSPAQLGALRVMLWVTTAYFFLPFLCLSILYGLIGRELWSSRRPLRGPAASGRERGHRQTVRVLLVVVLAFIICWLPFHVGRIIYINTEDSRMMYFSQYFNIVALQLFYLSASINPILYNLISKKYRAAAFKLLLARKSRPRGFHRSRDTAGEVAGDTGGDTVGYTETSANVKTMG

Ki (human motilin receptor) [nM] | Ki [1] [nM] | Compound
10 to 100 | – | CC(C)[C@H]1CC[C@@H](Cc2cccc(Cl)c2)NCCOc2ccccc2CCCNC(=O)[C@H](CNC(=N)N)NC1=O [Compound 101]
1000 to 10000 | – | CCC[C@@H]1CC[C@@H](C(C)C)NC(=O)[C@@H](Cc2cccc(Cl)c2)NCCOc2ccccc2CCCNC1=O [Compound 103]
1000 to 10000 | – | CCC[C@@H]1/C=C/[C@@H](C(C)C)NC(=O)[C@@H](Cc2cccc(Cl)c2)NCCOc2ccccc2CCCNC1=O [Compound 104]
1000 to 10000 | – | CCC[C@@H]1NC(=O)[C@@H](C(C)C)/C=C/[C@@H](Cc2ccc(OC)cc2)NCCOc2ccccc2CCCNC1=O [Compound 105]
100 to 1000 | – | CCC[C@@H]1NC(=O)[C@@H](C(C)C)CC[C@@H](Cc2ccc(OC)cc2)NCCOc2ccccc2CCCNC1=O [Compound 109]
1000 to 10000 | – | CCC[C@@H]1NC(=O)C(C(C)C)CC[C@@H](Cc2ccc(OC)cc2)NCCOc2ccccc2CCCNC1=O (stereo partly shown) [Compound 110]
100 to 1000 | – | CCC[C@@H]1NC(=O)[C@@H](C(C)C)OC(=O)[C@@H](Cc2cccc3ccccc23)NCCOc2ccccc2CCCNC1=O [Compound 111]
100 to 1000 | – | CCC[C@@H]1NC(=O)C(C(C)C)OC(=O)[C@@H](Cc2ccc(OC)cc2)NCCOc2ccccc2CCCNC1=O (stereo partly shown) [Compound 112]
1000 to 10000 | – | CCC[C@@H]1NC(=O)[C@@H](C(C)C)NC(=O)[C@@H](Cc2ccc(O)cc2)NCCOc2ccccc2CCCOC1=O [Compound 115]
100 to 1000 | – | CC(C)C[C@H]1C(=O)NCCCc2ccccc2OCCN[C@H](Cc2ccc(O)cc2)C(=O)N[C@H](C(C)C)C(=O)N1C [Compound 116]
100 to 1000 | – | CCC[C@@H]1NC(=O)[C@@H](C(C)C)OC(=O)[C@@H](Cc2ccc(O)cc2)NCCOc2ccccc2CCCNC1=O [Compound 119]
– | 1000 to 10000 | C[C@@H]1NCCOc2ccccc2CCCNC(=O)[C@@H](Cc2ccccc2)NC(=O)CN(C)C1=O [Compound 124]
– | 1000 to 10000 | CN1CC(=O)N[C@H](Cc2ccccc2)C(=O)NCCCc2ccccc2OCCN[C@@H](CCCCN)C1=O [Compound 127]
– | 100 to 1000 | CN1CC(=O)N[C@H](Cc2ccccc2)C(=O)NCCCc2ccccc2OCCN[C@@H](Cc2ccccc2)C1=O [Compound 128]
– | 100 to 1000 | CCC(C)[C@@H]1NCCOc2ccccc2CCCNC(=O)[C@@H](Cc2ccccc2)NC(=O)[C@H](C(C)C)N(C)C1=O (stereo partly shown) [Compound 131]
– | 1000 to 10000 | CCC(C)[C@@H]1NCCOc2ccccc2CCCNC(=O)[C@@H](Cc2ccccc2)NC(=O)[C@@H](C(C)CC)N(C)C1=O (stereo partly shown) [Compound 136]
– | 100 to 1000 | CCC(C)[C@@H]1NCCOc2ccccc2CCCNC(=O)[C@@H](Cc2ccccc2)NC(=O)[C@H](C(C)CC)N(C)C1=O (stereo partly shown) [Compound 138]
– | 1000 to 10000 | C[C@@H]1C(=O)N[C@H](Cc2ccc(F)cc2)C(=O)NCCOCCOCCN[C@@H](C2CC2)C(=O)N1C [Compound 140]
– | 100 to 1000 | C[C@@H]1C(=O)N[C@H](Cc2ccc(F)cc2)C(=O)NCCOc2cccc(c2)OCCN[C@@H](C2CC2)C(=O)N1C [Compound 149]
– | 1000 to 10000 | CCC[C@@H]1NCc2cccc(c2)CNC(=O)[C@@H](Cc2ccccc2)NC(=O)CN(C)C1=O [Compound 158]
– | 10 to 100 | CCC(C)[C@@H]1NCCOc2ccccc2/C=C/CNC(=O)N(Cc2ccccc2)NC(=O)[C@@H](C)N(C)C1=O (stereo partly shown) [Compound 165]
– | 100 to 1000 | CCC[C@H]1C(=O)N(C)[C@H](C)C(=O)N[C@H](Cc2ccccc2)C(=O)NCCCc2ccccc2OCCN1C [Compound 167]

— patent US7550431B2, “Spatially-defined macrocycles incorporating peptide bond surrogates” (Tranzyme Pharma Inc., priority 2003, dated 2009)
